Experimental data reported in US20050065596A1, “Stents capable of controllably releasing histone deacetylase inhibitors” (priority 2002, published 2005).

Tests used:
Assay type in all cases: cell-based
Human aortic SMCs [1] = assay: Morphological analysis of human aortic SMCs after one day incubation with drug; settings: FIG. 12; for morphological changes observed in a 40× microscope field: one day incubation, 100 nM and 500 nM TSA, 10 nM RPM, 50 nM Paclitaxel
Experimental: (§1) Human aortic SMCs were obtained from BioWhittaker Molecular Applications, Inc. (Clonetics, CC-2571), cultured in Smooth Muscle Medium-2 (BioWhittaker Molecular Applications, Inc., CC-3182), and maintained at 37° C. in humidified 95% air/5% CO2. Human aortic SMCs of passages 8-9 were used in the following experiments.
(§2) Human aortic SMCs cells were seeded, at a density of 6×10^3 cells/well, in a 24-well plate (about 3×10^3 cells/cm^2, quadruplicates). Following cell attachment for 24 hours, the above drugs were added to the cells, to achieve the following final concentrations: 100 nM and 500 nM of TSA, 10 nM of RPM, and 50 nM of Paclitaxel.
Following a one day incubation with the drug, the morphological changes in the cells were evaluated under a microscope.

Human aortic SMCs [2] = assay: MTT assay of cell proliferation
Experimental: as §1
(§3) Cell proliferation was measured by MTT assay and cell counting.
as §2
Following three additional days of incubation, 50 μl MTT (methylthiazoletetrazolium, 5 mg/ml in sterile H2O) were added in 0.5 ml medium to each well, and the cells were incubated at 37° C. for 4 hours. The medium was then aspirated, and the cells were dissolved in 300 μl 0.1 N HCl/isopropanol, mixed thoroughly, and a 100 μl portion of the mixture was transferred into a 96-well plate;
The 96-well plate was applied to a micro-plate reader and the absorbance at 570 nm was read. The average reading of wells containing only medium was set as the Control. For each sample, the proliferation rate was determined by the following equation: (Reading/Control)×100=Proliferation Rate (% of Control).

Human aortic SMCs [3] = assay: Cell counting (growth curves); settings: 50 nM TSA; days 0-14, medium with TSA replaced every 2-3 days; vs control cells; FIG. 14
Experimental: as §1, §3
Human aortic SMCs cells were seeded, at a density of […], in a 24-well plate (about 1.5×10^3 cells/cm^2, in triplicates). Following cell attachment for 24 hours, TSA was added to achieve a final concentration of 50 nM.
Every 2-3 days, the medium was removed and replaced with a fresh medium containing TSA. Control cells were treated with medium without TSA.
On days 0, 1, 2, 3, 6, 9, and 14 post-treatment, the cells were trypsinized and counted with a hemacytometer.

SMILES | nature of the inhibitory effect on SMCs (Human aortic SMCs [1]; concluded from the morphological analysis) | morphological changes observed in a 40× microscope field (Human aortic SMCs [1]) | inhibitory effect on the growth of the human SMCs (proliferation rate, MTT) (Human aortic SMCs [2]; 100 nM TSA and 500 nM TSA, four days incubation, FIG. 13) | continuous effect on SMCs growth (growth curves, cell counting) (Human aortic SMCs [3]) | cytotoxicity on SMCs (Human aortic SMCs [2]; 50 nM Paclitaxel, before the application of MTT assay)
CC(/C=C/C(=O)NO)=C\[C@@H](C)C(=O)c1ccc(N(C)C)cc1 [TSA, Trichostatin A] | mainly cytostatic | No morphological changes | inhibits SMC proliferation in vitro in a dose-dependent mainer | significant inhibitory effect | –
CC(=O)O[C@H]1C(=O)[C@@]2(C)[C@H]([C@H](OC(=O)c3ccccc3)[C@]3(O)C[C@H](OC(=O)[C@H](O)[C@@H](NC(=O)c4ccccc4)c4ccccc4)C(C)=C1C3(C)C)[C@]1(OC(C)=O)CO[C@@H]1C[C@@H]2O [Paclitaxel] | – | Rounded up pro-apoptotic cells appeared | – | – | high cytotoxicity on SMCs and caused cell death
